Results: patent US20090318527A1, “INDOLE COMPOUNDS AND METHODS OF USE THEREOF” (priority 2008, published 2009)

Assays:
[1] = target: T1, human 5-HT2A receptor (Homo sapiens, UniProt P28223); assay: Intracellular calcium flux assay, HEK 293 cells stably expressing 5-HT2A; assay type: cell-based; settings: for 5-HT2A response as percentage of the maximal 5-HT response @ 10,000 / Emax at 10 µM: at 10,000 nM; for 5-HT2A response as percentage of the maximal 5-HT response @ 10,000: EC50 not reached; for EC50: calcium flux, at least three independent experiments, each in triplicate, read-out: 5-HT2A mean EC50 ± SD; for Emax at 10 µM: HEK293, read-out: 5-HT2A functional activity (N/A class);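 as to all read-outs here: fluorescent calcium dye read on FLIPR Tetra, peak signal above baseline within 60 s after compound addition, seven concentrations spanning 10 pM to 10 µM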
T1 construct: expressed in transfected cells; host or cells: HEK 293

[2] = target: T2, 5-HT2C (Homo sapiens, UniProt P28335); assay: Intracellular calcium flux assay, HEK 293 cells stably expressing 5-HT2C; assay type: cell-based; design: expressed in transfected cells; host or cells: HEK 293; settings: for Emax: HEK293, read-out: 5-HT2C efficacy as percentage of the maximal 5-HT response ± SD, at least three independent experiments, entries marked a (42, 50, 51, 52) single measurements; for EC50: at least three independent experiments, entries marked a (42, 50, 51, 52) single measurements, read-out: 5-HT2C mean EC50 ± SD;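 as to all read-outs here: calcium dye fluorescence read on FLIPR Tetra as peak signal above baseline within 60 s of compound addition, seven concentrations from 10 pM to 10 µM, each in triplicate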
T2 sequence (P28335 33-458): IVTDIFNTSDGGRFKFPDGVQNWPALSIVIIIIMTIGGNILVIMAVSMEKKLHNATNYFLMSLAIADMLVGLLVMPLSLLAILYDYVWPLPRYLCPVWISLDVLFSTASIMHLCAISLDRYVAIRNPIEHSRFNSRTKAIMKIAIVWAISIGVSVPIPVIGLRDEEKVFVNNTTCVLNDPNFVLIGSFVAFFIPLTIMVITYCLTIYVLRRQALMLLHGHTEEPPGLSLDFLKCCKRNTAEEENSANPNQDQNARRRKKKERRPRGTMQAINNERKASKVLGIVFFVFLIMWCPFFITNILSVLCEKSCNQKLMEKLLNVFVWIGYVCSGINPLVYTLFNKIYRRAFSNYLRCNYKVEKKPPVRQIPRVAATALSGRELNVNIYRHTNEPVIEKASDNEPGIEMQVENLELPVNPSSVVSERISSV

[3] = target: T3, human 5-HT2B receptor (Homo sapiens, UniProt P41595); assay: Intracellular calcium flux assay, HEK 293 cells stably expressing 5-HT2B; assay type: cell-based; settings: for Emax: HEK293, read-out: 5-HT2B efficacy as percentage of the maximal 5-HT response ± SD; for Emax / EC50: calcium flux, at least three independent experiments; for EC50: each in triplicate, read-out: 5-HT2B mean EC50 ± SD; for Emax at 10 µM: HEK293, at 10,000 nM, read-out: 5-HT2B functional activity (N/A class);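 as to all read-outs here: calcium dye fluorescence read on a FLIPR Tetra, peak signal above baseline within 60 s after compound addition, seven-point concentration series from 10 pM up to 10 µM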
T3 construct: expressed in transfected cells; host or cells: HEK 293

[4] = tested on: mice; assay: Serotonin-induced scratching in mice (animal model for OCD); assay type: in vivo, male Swiss-Webster mice; settings: for Average Number of Scratches 30 min. after injection (±SEM): i.p. 5 minutes before serotonin s.c.; for % Reduction from control (scratches): i.p.
Procedure: The subjects were male Swiss-Webster mice, 4-6 weeks old, weighing 25-45 g. Mice were housed 5 per cage, given free access to standard mouse food and water except during experiments, and maintained in a temperature-controlled room (70° F.). Serotonin and all test drugs were made up with ascorbic acid to protect against oxidation. Two mice, one a control, the other experimental, were tested each time. Each mouse was separately placed into a plexiglas box.
Mice were injected subcutaneously between the shoulder blades with 0.1 ml of serotonin, 0.4 mg per ml in 0.15 M saline plus ascorbic acid, 1 mg/ml. […] The cumulative number of scratches with a hind leg was recorded at 5 minute intervals for 30 minutes. One saline injected control and one test animal were tested together in each assay.

T1 sequence (P28223 whole entry): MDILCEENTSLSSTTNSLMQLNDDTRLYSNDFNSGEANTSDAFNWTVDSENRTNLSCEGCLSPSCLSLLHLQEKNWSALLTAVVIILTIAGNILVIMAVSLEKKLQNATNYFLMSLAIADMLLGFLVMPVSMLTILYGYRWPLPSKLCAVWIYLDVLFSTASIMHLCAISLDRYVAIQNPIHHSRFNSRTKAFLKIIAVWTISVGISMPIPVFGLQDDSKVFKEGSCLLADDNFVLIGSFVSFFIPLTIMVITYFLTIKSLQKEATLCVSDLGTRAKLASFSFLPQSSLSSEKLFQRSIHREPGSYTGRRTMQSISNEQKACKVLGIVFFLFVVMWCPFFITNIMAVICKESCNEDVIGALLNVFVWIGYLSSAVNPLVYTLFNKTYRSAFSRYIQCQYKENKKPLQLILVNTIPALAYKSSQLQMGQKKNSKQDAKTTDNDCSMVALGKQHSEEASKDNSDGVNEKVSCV
T3 sequence (P41595 whole entry): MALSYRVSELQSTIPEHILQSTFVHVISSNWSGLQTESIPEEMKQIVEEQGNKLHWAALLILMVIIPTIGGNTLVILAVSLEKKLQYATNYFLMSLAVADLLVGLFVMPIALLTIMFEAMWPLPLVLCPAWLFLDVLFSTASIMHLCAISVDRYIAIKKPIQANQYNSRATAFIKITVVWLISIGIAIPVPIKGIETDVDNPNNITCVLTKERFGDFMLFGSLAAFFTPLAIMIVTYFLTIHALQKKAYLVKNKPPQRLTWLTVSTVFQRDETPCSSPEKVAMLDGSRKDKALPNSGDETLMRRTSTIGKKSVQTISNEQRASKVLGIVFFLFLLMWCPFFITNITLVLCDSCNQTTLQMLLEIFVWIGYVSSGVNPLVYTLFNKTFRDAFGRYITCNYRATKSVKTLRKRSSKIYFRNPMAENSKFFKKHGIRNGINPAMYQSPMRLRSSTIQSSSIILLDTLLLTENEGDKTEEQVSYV

CCOc1cc(F)cc2c1c(CCN(C)C)cn2C.Cl [Compound 32, 2-(4-Ethoxy-6-fluoro-1-methyl-1H-indol-3-yl)-N,N-dimethylethanamine hydrochloride]
5-HT2A response as percentage of the maximal 5-HT response @ 10,000 [1]: (26 ± 7.6 @ 10,000) % | EC50 [1]: > 10000 nM | melting point: 202.2 to 203.3 °C | Emax [2]: 85% | EC50 [2]: 31 ± 23.6 nM | Emax [3]: 66% | EC50 [3]: 166 ± 113 nM

CCCOc1cc(F)cc2c1c(CCN(C)C)cn2C.Cl [Compound 33, 2-(6-Fluoro-1-methyl-4-propoxy-1H-indol-3-yl)-N,N-dimethylethanamine hydrochloride]
Emax at 10 µM [1]: < 10% | melting point: 195.4 to 196.8 °C | Emax [2]: 91% | EC50 [2]: 384 ± 193 nM | Emax [3]: 78% | EC50 [3]: 182 ± 102 nM

CCn1cc(CCN(C)C)c2c(OC)cc(F)cc21.Cl [Compound 34, 2-(1-Ethyl-6-fluoro-4-methoxy-1H-indol-3-yl)-N,N-dimethylethanamine hydrochloride]
Emax at 10 µM [1]: < 10% | melting point: 233.4 to 234.9 °C | Emax [2]: 82% | EC50 [2]: 24 ± 8.38 nM | Emax [3]: 21% | EC50 [3]: 397 ± 133 nM

CCOc1cc(F)cc2c1c(CCN(C)C)cn2CC [Compound 35, 2-(4-Ethoxy-1-ethyl-6-fluoro-1H-indol-3-yl)-N,N-dimethylethanamine]
5-HT2A response as percentage of the maximal 5-HT response @ 10,000 [1]: (14 ± 4.8 @ 10,000) % | EC50 [1]: > 10000 nM | melting point: 77.1 to 78.2 °C | Emax [2]: 88% | EC50 [2]: 246 ± 185 nM | Emax [3]: 47% | EC50 [3]: 777 ± 383 nM

CCCOc1cc(F)cc2c1c(CCN(C)C)cn2CC [Compound 36, 2-(1-Ethyl-6-fluoro-4-propoxy-1H-indol-3-yl)-N,N-dimethylethanamine]
Emax at 10 µM [1]: < 10% | melting point: 68.9 to 70.1 °C | Emax [2]: 87% | EC50 [2]: 659 ± 352 nM | EC50 [3]: 543 ± 325 nM

CCCn1cc(CCN(C)C)c2c(OC)cc(F)cc21.Cl [Compound 37, 2-(6-Fluoro-4-methoxy-1-propyl-1H-indol-3-yl)-N,N-dimethylethanamine hydrochloride]
Emax at 10 µM [1]: < 10% | melting point: 119.8 to 121.3 °C | Emax [2]: 69% | EC50 [2]: 354 ± 195 nM | Emax at 10 µM [3]: < 10%

CCCn1cc(CCN(C)C)c2c(OCC)cc(F)cc21.Cl [Compound 38, 2-(4-Ethoxy-6-fluoro-1-propyl-1H-indol-3-yl)-N,N-dimethylethanamine hydrochloride]
Emax at 10 µM [1]: < 10% | melting point: 154 to 156 °C | Emax [2]: 80% | EC50 [2]: 1250 nM | Emax at 10 µM [3]: < 10%

CCCOc1cc(F)cc2c1c(CCN(C)C)cn2CCC.Cl [Compound 39, 2-(6-Fluoro-4-propoxy-1-propyl-1H-indol-3-yl)-N,N-dimethylethanamine hydrochloride]
Emax at 10 µM [1]: < 10% | melting point: 170.3 to 171.4 °C | Emax [2]: 65% | EC50 [2]: 762 ± 469 nM | Emax [3]: 26% | EC50 [3]: 3120 nM

COc1c(F)ccc2c1c(CCN(C)C)cn2C.Cl [Compound 40, 2-(5-Fluoro-4-methoxy-1-methyl-1H-indol-3-yl)-N,N-dimethylethanamine hydrochloride]
Emax at 10 µM [1]: < 10% | melting point: 183.6 to 186.8 °C | Emax [2]: 72% | EC50 [2]: 3.1 ± 1.2 nM | Emax at 10 µM [3]: < 10% | Average Number of Scratches 30 min. after injection (±SEM) ([4]; 3 mg/kg): 8.2 ± 5.1 | % Reduction from control (scratches) ([4]; 3 mg/kg, p <0.05 versus saline control (*p = 0.09)): 97* %

CCn1cc(CCN(C)C)c2c(OC)c(F)ccc21.Cl [Compound 41, 2-(1-Ethyl-5-fluoro-4-methoxy-1H-indol-3-yl)-N,N-dimethylethanamine hydrochloride]
Emax at 10 µM [1]: < 10% | melting point: 149 to 150 °C | Emax [2]: 37% | EC50 [2]: 1.4 ± 0.19 nM | Emax at 10 µM [3]: < 10%

CCCn1cc(CCN(C)C)c2c(OC)c(F)ccc21.Cl [Compound 42, 2-(5-Fluoro-4-methoxy-1-propyl-1H-indol-3-yl)-N,N-dimethylethanamine hydrochloride]
Emax at 10 µM [1]: < 10% | melting point: 111 to 113 °C | Emax [2]: 34% | EC50 [2]: 741 nM | Emax at 10 µM [3]: < 10%

CN(C)CCc1cn(C)c2c(F)ccc(OCc3ccccc3)c12 [Compound 50, 4-Benzyloxy-3-(2-dimethylaminoethyl)-7-fluoro-1-methyl-1H-indole]
Emax at 10 µM [1]: < 10% | melting point: 60 to 62 °C | Emax [2]: 81% | EC50 [2]: 282 nM | Emax at 10 µM [3]: < 10%

CN(C)CCc1cn(C)c2cc(F)cc(OCc3ccccc3)c12 [Compound 51, 4-Benzyloxy-3-(2-dimethylaminoethyl)-6-fluoro-1-methyl-1H-indole]
Emax at 10 µM [1]: < 10% | melting point: 79 to 80 °C | Emax [2]: 99% | EC50 [2]: 233 nM | Emax at 10 µM [3]: < 10%

CN(C)CCc1cn(C)c2ccc(F)c(OCc3ccccc3)c12.Cl [Compound 52, 4-Benzyloxy-3-(2-dimethylaminoethyl)-5-fluoro-1-methyl-1H-indole hydrochloride]
Emax at 10 µM [1]: < 10% | melting point: 139 to 141 °C | Emax [2]: 79% | EC50 [2]: 44 nM | Emax at 10 µM [3]: < 10%

COc1c(F)cc(F)c2c1c(CCN(C)C)cn2C.Cl [Compound 58, 2-(5,7-Difluoro-4-methoxy-1-methyl-1H-indol-3-yl)-N,N-dimethylethanamine hydrochloride]
Emax at 10 µM [1]: < 10% | melting point: 185 to 189 °C | Emax [2]: 51% | EC50 [2]: 2.4 ± 0.44 nM | Emax at 10 µM [3]: < 10%

CCOc1c(F)ccc2c1c(CCN(C)C)cn2CC.Cl [Compound 60, 2-(4-Ethoxy-1-ethyl-5-fluoro-1H-indol-3-yl)-N,N-dimethylethanamine hydrochloride]
Emax at 10 µM [1]: < 10% | melting point: 130 to 132 °C | Emax [2]: 69% | EC50 [2]: 4.2 ± 0.94 nM | Emax at 10 µM [3]: < 10%

CCCn1cc(CCN(C)C)c2c(OCC)c(F)ccc21.Cl [Compound 61, 2-(4-Ethoxy-5-fluoro-1-propyl-1H-indol-3-yl)-N,N-dimethylethanamine hydrochloride]
Emax at 10 µM [1]: < 10% | melting point: 141 to 143 °C | Emax [2]: 38% | EC50 [2]: 13 ± 1.51 nM | Emax at 10 µM [3]: < 10%

CN(C)CCc1cn(C)c2c(F)ccc(F)c12.Cl [Compound 65, 2-(4,7-Difluoro-1-methyl-1H-indol-3-yl)-N,N-dimethylethanamine hydrochloride]
Emax at 10 µM [1]: < 10% | melting point: 209 to 210 °C | Emax [2]: 41% | EC50 [2]: 16 ± 3.46 nM | Emax at 10 µM [3]: < 10%

COc1ccc(Br)c2c1c(CCN(C)C)cn2C.Cl [Compound 73, 2-(7-Bromo-4-methoxy-1-methyl-1H-indol-3-yl)-N,N-dimethylethanamine hydrochloride]
Emax at 10 µM [1]: < 10% | melting point: 235 to 236 °C | Emax [2]: 48% | EC50 [2]: 274 ± 57.7 nM | Emax at 10 µM [3]: < 10%

CN(C)CCc1cn(C)c2cc(O)c(F)cc12 [Compound 82, 3-[2-(Dimethylamino-ethyl)]-5-fluoro-1-methyl-1H-indol-6-ol]
Emax at 10 µM [1]: < 10% | melting point: 165 to 169 °C | Emax [2]: 83% | EC50 [2]: 589 ± 546 nM | Emax at 10 µM [3]: < 10%

CCCn1cc(CCN(C)C)c2cc(F)c(O)cc21 [Compound 84, 3-[2-(Dimethylamino-ethyl)]-5-fluoro-1-propyl-1H-indol-6-ol]
Emax at 10 µM [1]: < 10% | melting point: 157 to 159 °C | Emax [2]: 70% | EC50 [2]: 507 ± 314 nM | Emax at 10 µM [3]: < 10%

CNCCC(Oc1ccc(C(F)(F)F)cc1)c1ccccc1 (centres unmarked) [Fluoxetine, reference compound]
Average Number of Scratches 30 min. after injection (±SEM) ([4]; 10 mg/kg): 154.8 ± 105.2 | % Reduction from control (scratches) ([4]; 10 mg/kg, p <0.05 versus saline control): 63.5%
